Laboratory results as given in ChEMBL document CHEMBL4138317, “Deciphering the Inhibition of the Neuronal Calcium Sensor 1 and the Guanine Exchange Factor Ric8a with a Small Phenothiazine Molecule for the Rational Generation of Therapeutic Synapse Function Regulators” (J Med Chem, 2018).
The source made the active and inactive calls. No cut-off for these calls is given here.

Key:
[1] = target: Neuronal calcium sensor 1/Synembryn-A (Homo sapiens) (UniProt P62166+Q9NPQ8); test: Inhibition of human NCS1 and V5-tagged Ric8a interaction expressed in HEK293 cells at 20 uM after 24 hrs by Western blot analysis relative to control; type: cell-based
[2] = target: Neuronal calcium sensor 1 (Homo sapiens, UniProt P62166); test: Binding affinity to human NCS1 expressed in Escherichia coli BL21 Star (DE3) by fluorescence emission assay; settings: read-out: Kd(app)
[3] = target: T1, Frequenin-2 (Drosophila melanogaster, UniProt Q9VWX8); test: Binding affinity to drosophila NCS1 expressed in Escherichia coli BL21 (DE3) by fluorescence emission assay; settings: read-out: Kd(app)
T1 sequence (Q9VWX8 whole entry): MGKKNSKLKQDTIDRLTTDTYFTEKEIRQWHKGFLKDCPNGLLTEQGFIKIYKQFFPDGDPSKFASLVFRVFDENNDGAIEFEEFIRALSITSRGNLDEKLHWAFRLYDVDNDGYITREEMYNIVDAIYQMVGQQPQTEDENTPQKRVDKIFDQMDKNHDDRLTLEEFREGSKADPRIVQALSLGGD

[4] = target: T2, Frequenin-2 (Drosophila melanogaster) (UniProt Q9VWX8); test: Binding affinity to drosophila NCS1 expressed in Escherichia coli BL21 (DE3) by STD-NMR method
T2 sequence (whole entry): T1 sequence (Q9VWX8 whole entry)

Sequence of Neuronal calcium sensor 1/Synembryn-A (Homo sapiens) (P62166 whole entry, looked up): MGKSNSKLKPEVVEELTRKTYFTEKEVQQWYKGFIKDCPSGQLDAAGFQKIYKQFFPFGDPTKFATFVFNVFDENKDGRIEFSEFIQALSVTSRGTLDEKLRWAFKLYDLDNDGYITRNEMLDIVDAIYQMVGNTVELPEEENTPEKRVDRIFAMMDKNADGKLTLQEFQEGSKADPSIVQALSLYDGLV
Sequence of Neuronal calcium sensor 1/Synembryn-A (Homo sapiens) (Q9NPQ8 whole entry, looked up): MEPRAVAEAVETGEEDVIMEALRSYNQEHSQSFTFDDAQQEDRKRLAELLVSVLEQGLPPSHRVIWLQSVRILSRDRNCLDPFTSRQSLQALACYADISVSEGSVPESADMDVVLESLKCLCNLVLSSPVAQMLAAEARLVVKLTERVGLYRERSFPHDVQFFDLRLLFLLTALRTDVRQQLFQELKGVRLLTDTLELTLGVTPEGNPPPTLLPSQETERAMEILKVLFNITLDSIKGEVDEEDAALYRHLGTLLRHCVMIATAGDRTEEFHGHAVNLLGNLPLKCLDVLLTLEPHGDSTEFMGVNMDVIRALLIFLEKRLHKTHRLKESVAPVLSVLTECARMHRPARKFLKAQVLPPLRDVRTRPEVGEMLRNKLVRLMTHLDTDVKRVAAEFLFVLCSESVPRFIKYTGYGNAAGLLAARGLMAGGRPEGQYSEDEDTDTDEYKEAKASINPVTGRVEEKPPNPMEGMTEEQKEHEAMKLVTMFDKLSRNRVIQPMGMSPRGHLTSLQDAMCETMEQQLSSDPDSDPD
Sequence of Neuronal calcium sensor 1 (P62166 2-190 limits assumed): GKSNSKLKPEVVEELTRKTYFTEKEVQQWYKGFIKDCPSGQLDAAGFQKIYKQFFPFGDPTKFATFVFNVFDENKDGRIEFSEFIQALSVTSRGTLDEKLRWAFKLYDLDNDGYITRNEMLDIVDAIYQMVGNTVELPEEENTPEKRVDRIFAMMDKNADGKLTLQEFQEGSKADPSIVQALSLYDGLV

| SMILES | inhibition [1] | Kd [2] | Kd [3] | Activity [4] |
| --- | --- | --- | --- | --- |
| Cc1sc(NC(=O)CNC(=O)c2ccc(F)cc2)nc1-c1ccccc1 | 50% | – | – | – |
| COc1ccccc1C(=O)Nc1nc2cc(C(F)(F)F)ccc2s1 | 50% | 11.5 µM | – | – |
| O=C(CN1CCCCC1)NN1c2ccccc2Sc2ccccc21 | – | – | 71 µM | Active |
| O=C(CC(c1ccccc1)c1ccccc1)Nc1nc2ccccc2s1 | 50% | 1.25 µM | 1.13 µM | – |
